Laboratory results taken from US12037415B2, “Peptide and pharmaceutical composition for treating an eye disease comprising the same as an active pharmaceutical ingredient” (YuYu Pharma, Inc., priority 2017, dated 2024).
Non-standard residues stand in square brackets, D forms with d. Residues, ends and D or L forms follow the SMILES beside them. ξ: configuration not given here. Hyp = O=C(O)[C@@H]1C[C@@H](O)CN1; Thr(3ξ) = CC(O)[C@H](N)C(=O)O; pGlu = O=C1CC[C@@H](C(=O)O)N1; hSer = N[C@@H](CCO)C(=O)O

Tests used:
[1] = system: cornea of rats with dry eye syndrome (ELGE); assay: Corneal permeability of fluorescent dye (corneal damage) in rats with ELGE-induced dry eye syndrome; assay type: in vivo, rat; settings: 0.3% solution, day 14 after the administration
Text: (§1) In order to evaluate the eye protection effect on dry eye syndrome by YDE-001 to YDE-028 prepared in Working Example 1, a total of 320 Sprague-Dawley-type male rats (OrientBio, Seungnam, Korea) were adapted for 7 days. Thereafter, dry eye syndrome was induced in 264 test rats through extraorbital lacrimal gland excision (hereinafter, ELGE). 8 test rats without the eye abnormality were subjected to a sham operation as a control group.
(§2) The rats were systemically anesthetized by inhaling a mixed gas of 2% to 3% of isoflurane (Hana Pharm. Co., Hwasung, Korea), 70% of N2O, and 28.6% of O2 using a rodent anesthesia machine (Surgivet, Waukesha, Wis., USA) and a ventilator (Model 687, Harvard Apparatus, Cambridge, UK). Thereafter, the extraorbital lacrimal gland located in the subdermal area above the masseter muscle and under the optic nerve was excised through a transverse incision in a size of 10 mm on the anterior part of the left ear tragus. The skin was sutured by a general method. […] After 6 days following the ELGE operation, confirmation was performed through the Schirmer test by measuring the amount of tear secretion whether dry eye syndrome had been induced. Meanwhile, each rat of the control group with the sham operation was checked for the presence and location of the extraorbital lacrimal gland through a skin incision, and the skin was then sutured without the excision thereof (FIG. 134).
(§3) In addition, in order to evaluate the eye protection effect on dry eye syndrome by YDE-029 to YDE-043 prepared in Working Example 1, a total of 200 Sprague-Dawley-type male rats (OrientBio, Seungnam, Korea) were adapted for 7 days. Dry eye syndrome was induced in 165 test rats through the ELGE. 8 test rats without the eye abnormality were subjected to the sham operation as a control group. The ELGE was carried out as described above.
(§4) For YDE-001 to YDE-028, YY-102 and the 28 YDE-series were each dissolved in physiological saline at a concentration of 3 mg/ml and administered at a dose of 5 μl/eye at 9:30 am and 3:30 pm daily for 14 days after 7 days from the ELGE operation for a total of 28 times. The DS solution was dissolved in physiological saline at a concentration of 30 mg/ml and administered at a dose of 5 μl/eye twice a day for 14 days after 7 days from the ELGE operation for a total of 28 times. For the sham control and the ELGE control groups, the same stimulation as the administration was applied. In order to prevent excessive eye dryness, the same volume of physiological saline was applied in the same manner in place of the test substances.
as §4, with “Further, For YDE-029” for “For YDE-001”, “Further, For YDE-029 to YDE-043,” for “For YDE-001 to YDE-028,”, “YDE-029 to YDE-043, YY-102 and” for “YDE-001 to YDE-028, YY-102 and”, “and the 15 YDE-series were” for “and the 28 YDE-series were”, “the test substances (FIG. 137).” for “the test substances.”
After YDE-001 to YDE-028 were each administered to the eyes […], the changes in the corneal permeability were checked.
In order to measure the corneal permeability, Zolethyl 50™ (Virbac Lab., Carros, France), an animal anesthetic, was intraperitoneally injected at a dose of 25 mg/kg. Thereafter, saline containing a 1% (v/v) fluorescent solution (fluorescein sodium salt, Tokyo Kasei Kogyo Co., Tokyo, Japan) was applied to the eyes at a dose of 5 μl/eye. The eyes thus treated were closed and fixed with a tape. After 1 hour, the remaining fluorescent solution was removed using a cotton swab (FIG. 142). […]

[2] = system: rats with dry eye syndrome (extraorbital lacrimal gland excision, ELGE); assay: Amount of tear secretion (Schirmer test, cobalt chloride paper) in rats with ELGE-induced dry eye syndrome; assay type: in vivo, rat; settings: 0.3% solution (DS 3%), administration for 14 days
Text: as §1, §2, §3, §4
as §4, with “Further, For YDE-029” for “For YDE-001”, “Further, For YDE-029 to YDE-043,” for “For YDE-001 to YDE-028,”, “YDE-029 to YDE-043, YY-102 and” for “YDE-001 to YDE-028, YY-102 and”, “and the 15 YDE-series were” for “and the 28 YDE-series were”, “the test substances (FIG. 137).” for “the test substances.”
After 6 days from the ELGE surgery, the changes in the amount of tear secretion were measured at day 7 and day 14 after the administration of YDE-001 to YDE-043. The amount of tear secretion was measured by the […] travel distance of tears absorbed by cobalt chloride paper in a size of 1×15 mm (Toyo Roshi Kaisha, Japan).
The cobalt chloride paper was placed in the lateral canthus of a rat for 60 seconds to absorb tears (FIG. 139). The length of the area absorbed from the corner of the cobalt chloride paper was measured with an electronic digital caliper (Mytutoyo, Tokyo, Japan) (FIG. 138).

[3] = Stability in aqueous solution, amount of related substances under long-term storage conditions; assay type: physicochemical; settings: glass vial, 25° C., 75% RH
Method: In order to confirm the stability of each test substance in an aqueous solution, […] of each sample was dissolved in 1 ml of water to a concentration of 1 mg/ml, which was then charged to a glass vial, plugged with a rubber cap, sealed with an aluminum cap, and stored under long-term storage conditions (25° C., 75% RH). The stability of the test substance was evaluated by measuring the amount of related substances at the time of one week, two weeks, four weeks, eight weeks, and twelve weeks under the long-term storage conditions.

[4] = study of YDE-029 to YDE-043 (Table 17)
[5] = study of YDE-001 to YDE-028 (Table 16)

| Compound | Amount of related substances (%; after 12 weeks) [3] [%] | Permeability of fluorescent dye (%) [1, 4] [%] | Amount of tear secretion as compared with the ELGE control group ([2]; study of YDE-029 to YDE-043) | Amount of tear secretion as compared with the ELGE control group ([2]; study of YDE-001 to YDE-028) | Permeability of fluorescent dye (%) [1, 5] [%] |
| --- | --- | --- | --- | --- | --- |
| CC(C)C[C@H](NC(=O)CNC(=O)[C@H](CC(C)C)NC(=O)[C@H](CCC(N)=O)NC(=O)CNC(=O)[C@@H]1C[C@@H](O)CN1)C(=O)N[C@@H](C)C(=O)NCC(=O)N1CCC[C@H]1C(=O)N[C@@H](Cc1ccc(O)cc1)C(=O)O [YDE-029, HyP-Gly-Gln-Leu-Gly-Leu-Ala-Gly-Pro-Tyr] (H-[Hyp]GQLGLAGPY-OH) | – | 63.45 ± 11.57 | did not show any significant changes | – | – |
| O=c1ccn([C@@H]2O[C@H](COP(=O)(O)OP(=O)(O)OP(=O)(O)OP(=O)(O)OC[C@H]3O[C@@H](n4ccc(=O)[nH]c4=O)[C@H](O)[C@@H]3O)[C@@H](O)[C@H]2O)c(=O)[nH]1 [DS, diquafosol sodium, reference compound] | – | – | increased | increased | – |
| CC(C)C[C@H](NC(=O)[C@H](CO)NC(=O)[C@H](CC(=O)O)NC(=O)[C@H](CCC(N)=O)NC(=O)CNC(=O)[C@@H]1C[C@@H](O)CN1)C(=O)N[C@@H](C)C(=O)NCC(=O)N1CCC[C@H]1C(=O)N[C@@H](CCCCN)C(=O)O [YDE-023, HyP-Gly-Gln-Asp-Ser-Leu-Ala-Gly-Pro-Lys] (H-[Hyp]GQDSLAGPK-OH) | 30.66 | – | – | – | 26.51 ± 8.18 |
| CC(C)C[C@H](NC(=O)CNC(=O)[C@H](CC(C)C)NC(=O)[C@H](CCC(N)=O)NC(=O)CNC(=O)[C@@H]1C[C@@H](O)CN1)C(=O)N[C@@H](C)C(=O)NCC(=O)N1CCC[C@H]1C(=O)N[C@@H](CCC(N)=O)C(=O)O [YDE-032, HyP-Gly-Gln-Leu-Gly-Leu-Ala-Gly-Pro-Gln] (H-[Hyp]GQLGLAGPQ-OH) | – | 58.90 ± 19.81 | did not show any significant changes | – | – |
| CC(C)C[C@H](NC(=O)CNC(=O)[C@H](CC(C)C)NC(=O)[C@H](CCC(N)=O)NC(=O)CNC(=O)[C@@H]1C[C@@H](O)CN1)C(=O)N[C@@H](C)C(=O)O [YDE-041, HyP-Gly-Gln-Leu-Gly-Leu-Ala] (H-[Hyp]GQLGLA-OH) | – | 46.38 ± 26.65 | did not show any significant changes | – | – |
| CC(C)C[C@H](NC(=O)CNC(=O)[C@H](CC(C)C)NC(=O)[C@H](CCC(N)=O)NC(=O)CNC(=O)[C@@H]1CCC(=O)N1)C(=O)N[C@@H](C)C(=O)NCC(=O)N1CCC[C@H]1C(=O)N[C@@H](CCCCN)C(=O)O [YDE-036, (5-oxo)Pro-Gly-Gln-Leu-Gly-Leu-Ala-Gly-Pro-Lys] ([pGlu]GQLGLAGPK-OH) | – | 57.87 ± 22.91 | did not show any significant changes | – | – |
| CC(C)C[C@H](NC(=O)[C@@H]1CCCN1C(=O)CNC(=O)[C@H](C)NC(=O)[C@H](CC(C)C)NC(=O)CNC(=O)[C@H](CC(C)C)NC(=O)[C@H](CCC(N)=O)NC(=O)CNC(=O)[C@@H]1C[C@@H](O)CN1)C(=O)O [YDE-030, HyP-Gly-Gln-Leu-Gly-Leu-Ala-Gly-Pro-Leu] (H-[Hyp]GQLGLAGPL-OH) | – | 30.60 ± 13.61 | did not show any significant changes | – | – |

More lines, main results first:

| Amount of related substances (%; after 12 weeks) [3] [%] | Compound | Permeability of fluorescent dye (%) [1, 4] [%] | Amount of tear secretion as compared with the ELGE control group ([2]; study of YDE-029 to YDE-043) | Amount of tear secretion as compared with the ELGE control group ([2]; study of YDE-001 to YDE-028) | Permeability of fluorescent dye (%) [1, 5] [%] |
| --- | --- | --- | --- | --- | --- |
| 2.97 | CC(C)C[C@H](NC(=O)CNC(=O)[C@H](CCCCN)NC(=O)[C@H](CCC(N)=O)NC(=O)CNC(=O)[C@@H]1C[C@@H](O)CN1)C(=O)N[C@@H](C)C(=O)NCC(=O)N1CCC[C@H]1C(=O)N[C@@H](CCCCN)C(=O)O [YDE-005, HyP-Gly-Gln-Lys-Gly-Leu-Ala-Gly-Pro-Lys] (H-[Hyp]GQKGLAGPK-OH) | – | – | – | 37.98 ± 11.53 |
| 5.92 | CC(C)C[C@H](NC(=O)CNC(=O)[C@H](Cc1ccc(O)cc1)NC(=O)[C@H](CCC(N)=O)NC(=O)CNC(=O)[C@@H]1C[C@@H](O)CN1)C(=O)N[C@@H](C)C(=O)NCC(=O)N1CCC[C@H]1C(=O)N[C@@H](CCCCN)C(=O)O [YDE-013, HyP-Gly-Gln-Tyr-Gly-Leu-Ala-Gly-Pro-Lys] (H-[Hyp]GQYGLAGPK-OH) | – | – | – | 32.24 ± 7.84 |
| 3.57 | CC(C)C[C@H](NC(=O)CNC(=O)[C@H](Cc1ccccc1)NC(=O)[C@H](CCC(N)=O)NC(=O)CNC(=O)[C@@H]1C[C@@H](O)CN1)C(=O)N[C@@H](C)C(=O)NCC(=O)N1CCC[C@H]1C(=O)N[C@@H](CCCCN)C(=O)O [YDE-012, HyP-Gly-Gln-Phe-Gly-Leu-Ala-Gly-Pro-Lys] (H-[Hyp]GQFGLAGPK-OH) | – | – | – | 31.01 ± 11.38 |
| 6.72 | CC(C)C[C@H](NC(=O)CNC(=O)[C@H](Cc1c[nH]c2ccccc12)NC(=O)[C@H](CCC(N)=O)NC(=O)CNC(=O)[C@@H]1C[C@@H](O)CN1)C(=O)N[C@@H](C)C(=O)NCC(=O)N1CCC[C@H]1C(=O)N[C@@H](CCCCN)C(=O)O [YDE-014, HyP-Gly-Gln-Trp-Gly-Leu-Ala-Gly-Pro-Lys] (H-[Hyp]GQWGLAGPK-OH) | – | – | – | 31.15 ± 10.87 |
| 10.15 | CC(C)C[C@H](NC(=O)CNC(=O)[C@H](CCO)NC(=O)[C@H](CCC(N)=O)NC(=O)CNC(=O)[C@@H]1C[C@@H](O)CN1)C(=O)N[C@@H](C)C(=O)NCC(=O)N1CCC[C@H]1C(=O)N[C@@H](CCCCN)C(=O)O [YDE-026, HyP-Gly-Gln-Ser(Homo)-Gly-Leu-Ala-Gly-Pro-Lys] (H-[Hyp]GQ[hSer]GLAGPK-OH) | – | – | – | 22.63 ± 11.23 |
| 4.42 | CC(C)C[C@H](NC(=O)CNC(=O)[C@H](C)NC(=O)[C@H](CCC(N)=O)NC(=O)CNC(=O)[C@@H]1C[C@@H](O)CN1)C(=O)N[C@@H](C)C(=O)NCC(=O)N1CCC[C@H]1C(=O)N[C@@H](CCCCN)C(=O)O [YDE-008, HyP-Gly-Gln-Ala-Gly-Leu-Ala-Gly-Pro-Lys] (H-[Hyp]GQAGLAGPK-OH) | – | – | – | 20.32 ± 11.87 |
| 3.76 | CC(C)C[C@H](NC(=O)CNC(=O)[C@@H](NC(=O)[C@H](CCC(N)=O)NC(=O)CNC(=O)[C@@H]1C[C@@H](O)CN1)C(C)O)C(=O)N[C@@H](C)C(=O)NCC(=O)N1CCC[C@H]1C(=O)N[C@@H](CCCCN)C(=O)O (stereo partly drawn) [YDE-007, HyP-Gly-Gln-Thr-Gly-Leu-Ala-Gly-Pro-Lys] (H-[Hyp]GQ[Thr(3ξ)]GLAGPK-OH) | – | – | – | 32.79 ± 10.77 |
